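These data come from cells grown in 96-well plates and exposed to compound for 48 hours at five concentrations. TGI denotes the concentration required for complete inhibition of growth.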
Columns and labels:
Assay in all cases: NCI anticancer screen, dose series, 48 h
[1] = test system: 786-0 renal
[2] = test system: A498 renal
[3] = test system: A549 NSCLC
[4] = test system: ACHN renal
[5] = test system: CAKI-1 renal
[6] = test system: CCRF-CEM leukemia
[7] = test system: COLO 205 colon
[8] = test system: DU-145 prostate
[9] = test system: EKVX NSCLC
[10] = test system: HCT-116 colon
[11] = test system: HCT-15 colon
[12] = test system: HL-60(TB) leukemia
[13] = test system: HT29 colon
[14] = test system: IGROV1 ovarian
[15] = test system: K-562 leukemia
[16] = test system: KM12 colon
[17] = test system: LOX IMVI melanoma
[18] = test system: M14 melanoma
[19] = test system: MALME-3M melanoma
[20] = test system: MCF7 breast
[21] = test system: MDA-MB-231 breast
[22] = test system: MDA-MB-435
[23] = test system: MDA-N
[24] = test system: MOLT-4 leukemia
[25] = test system: NCI-H226 lung
[26] = test system: NCI-H23 lung
[27] = test system: NCI-H460 lung
[28] = test system: NCI-H522 lung
[29] = test system: NCI/ADR-RES ovarian
[30] = test system: OVCAR-3 ovarian
[31] = test system: OVCAR-4 ovarian
[32] = test system: OVCAR-5 ovarian
[33] = test system: OVCAR-8 ovarian
[34] = test system: PC-3 prostate
[35] = test system: RPMI-8226 leukemia
[36] = test system: RXF 393 renal
[37] = test system: SF-268 CNS
[38] = test system: SF-295 CNS
[39] = test system: SF-539 CNS
[40] = test system: SK-MEL-2 melanoma
[41] = test system: SK-MEL-28 melanoma
[42] = test system: SK-MEL-5 melanoma
[43] = test system: SK-OV-3 ovarian
[44] = test system: SN12C renal
[45] = test system: SNB-19 CNS
[46] = test system: SNB-75 CNS
[47] = test system: SR leukemia
[48] = test system: SW-620 colon
[49] = test system: T-47D breast
[50] = test system: TK-10 renal
[51] = test system: U251 CNS
[52] = test system: UACC-257 melanoma
[53] = test system: UACC-62 melanoma
[54] = test system: UO-31 renal
[55] = test system: BT-549 breast
[56] = test system: HCC-2998 colon
[57] = test system: HOP-62 NSCLC
[58] = test system: HOP-92 NSCLC
[59] = test system: HS 578T breast

CCC(C)C1=C(OC(C)=O)[N+]2([O-])Oc3ccc(-c4c(OC(C)=O)c(OC(C)=O)c(-c5ccc(OC(C)=O)cc5)c(OC(C)=O)c4OC(C)=O)cc3OC2(C(C)CC)C(=O)N1OC(C)=O (centres undefined)
TGI [1]: 24 µM | TGI [2]: > 50 µM | TGI [3]: > 50 µM | TGI [4]: > 50 µM | TGI [5]: > 50 µM | TGI [6]: 39.3 µM | TGI [7]: > 50 µM | TGI [8]: > 50 µM | TGI [9]: 32.7 µM | TGI [10]: 22.8 µM | TGI [11]: > 50 µM | TGI [12]: 19.7 µM | TGI [13]: > 50 µM | TGI [14]: 34.4 µM | TGI [15]: 39.7 µM | TGI [16]: > 50 µM | TGI [17]: 43.5 µM | TGI [18]: > 50 µM | TGI [19]: > 50 µM | TGI [20]: > 50 µM | TGI [21]: > 50 µM | TGI [22]: > 50 µM | TGI [23]: > 50 µM | TGI [24]: 29.3 µM | TGI [25]: > 50 µM | TGI [26]: > 50 µM | TGI [27]: > 50 µM | TGI [28]: 17.5 µM | TGI [29]: > 50 µM | TGI [30]: 29.5 µM | TGI [31]: 38 µM | TGI [32]: > 50 µM | TGI [33]: > 50 µM | TGI [34]: > 50 µM | TGI [35]: 22.8 µM | TGI [36]: > 50 µM | TGI [37]: 37.6 µM | TGI [38]: 21.8 µM | TGI [39]: > 50 µM | TGI [40]: 43.2 µM | TGI [41]: 44.7 µM | TGI [42]: 23 µM | TGI [43]: > 50 µM | TGI [44]: > 50 µM | TGI [45]: > 50 µM | TGI [46]: 42.3 µM | TGI [47]: 30.6 µM | TGI [48]: > 50 µM | TGI [49]: 24.8 µM | TGI [50]: > 50 µM | TGI [51]: > 50 µM | TGI [52]: > 50 µM | TGI [53]: 16.7 µM | TGI [54]: > 50 µM

CN(C)CCN(C)c1ccc2c(=O)n(CCN(C)C)c(=O)n3c4ccccc4c(=O)c1c23
TGI [1]: 10.2 µM | TGI [2]: 5.36 µM | TGI [3]: 22.7 µM | TGI [4]: 0.849 µM | TGI [55]: 15 µM | TGI [5]: 1.08 µM | TGI [6]: 0.293 µM | TGI [7]: 3.03 µM | TGI [8]: 1.3 µM | TGI [9]: 6.92 µM | TGI [56]: 2.05 µM | TGI [10]: 3.14 µM | TGI [11]: 10.8 µM | TGI [57]: 1.47 µM | TGI [58]: 1.82 µM | TGI [59]: 8.65 µM | TGI [13]: 3.73 µM | TGI [14]: 8.02 µM | TGI [16]: 8.08 µM | TGI [17]: 5.53 µM | TGI [18]: 6.68 µM | TGI [19]: 3 µM | TGI [20]: 11.3 µM | TGI [21]: 4.23 µM | TGI [22]: 3.18 µM | TGI [23]: 2.89 µM | TGI [24]: 0.135 µM | TGI [25]: 1.59 µM | TGI [26]: 2.23 µM | TGI [27]: 2.23 µM | TGI [28]: 2.8 µM | TGI [29]: 16.9 µM | TGI [30]: 12.6 µM | TGI [31]: 2.27 µM | TGI [32]: 12.1 µM | TGI [33]: 7.15 µM | TGI [34]: 21.3 µM | TGI [35]: 3.32 µM | TGI [36]: 11.2 µM | TGI [37]: 0.559 µM | TGI [38]: 8.38 µM | TGI [39]: 2.15 µM | TGI [40]: 6.84 µM | TGI [41]: 6.81 µM | TGI [42]: 2.71 µM | TGI [43]: 16.7 µM | TGI [44]: 2.64 µM | TGI [45]: 9.7 µM | TGI [46]: 3.5 µM | TGI [48]: 8.34 µM | TGI [49]: 9.77 µM | TGI [50]: 5.43 µM | TGI [51]: 8.93 µM | TGI [52]: 4.73 µM | TGI [53]: 2.6 µM | TGI [54]: 2.62 µM

CC(=O)O[C@H]1[C@@H]2OC(=O)[C@@](O)(CC3CCCO3)[C@@H]2CC(=O)[C@](C)(O)CC/C=C(\C)CCC[C@@H]1C (some centres undefined)
TGI [1]: > 100 µM | TGI [2]: > 100 µM | TGI [3]: > 100 µM | TGI [4]: > 100 µM | TGI [55]: 70.4 µM | TGI [5]: 44.5 µM | TGI [6]: 68.4 µM | TGI [7]: 34.5 µM | TGI [8]: > 100 µM | TGI [9]: > 100 µM | TGI [56]: > 100 µM | TGI [11]: > 100 µM | TGI [12]: 57.8 µM | TGI [58]: 87.7 µM | TGI [59]: > 100 µM | TGI [14]: > 100 µM | TGI [15]: 90.9 µM | TGI [16]: > 100 µM | TGI [17]: 46.1 µM | TGI [18]: > 100 µM | TGI [19]: > 100 µM | TGI [20]: > 100 µM | TGI [21]: 63 µM | TGI [22]: > 100 µM | TGI [23]: 49.4 µM | TGI [25]: 32.5 µM | TGI [27]: > 100 µM | TGI [28]: 72.4 µM | TGI [29]: > 100 µM | TGI [30]: > 100 µM | TGI [31]: > 100 µM | TGI [32]: > 100 µM | TGI [33]: > 100 µM | TGI [34]: > 100 µM | TGI [35]: > 100 µM | TGI [36]: 35.9 µM | TGI [37]: > 100 µM | TGI [38]: > 100 µM | TGI [39]: 36.7 µM | TGI [40]: > 100 µM | TGI [41]: 44.5 µM | TGI [42]: > 100 µM | TGI [44]: > 100 µM | TGI [45]: > 100 µM | TGI [46]: > 100 µM | TGI [48]: 49.2 µM | TGI [49]: > 100 µM | TGI [50]: > 100 µM | TGI [51]: > 100 µM | TGI [52]: > 100 µM | TGI [53]: > 100 µM | TGI [54]: > 100 µM

C/C=C\C(CC(=O)NCCC1CN(S(=O)(=O)c2ccc(C)cc2)c2ccccc21)CC(=O)OC (centres undefined)
TGI [1]: > 100 µM | TGI [2]: > 100 µM | TGI [3]: > 100 µM | TGI [4]: > 100 µM | TGI [55]: > 100 µM | TGI [5]: > 100 µM | TGI [7]: > 100 µM | TGI [8]: > 100 µM | TGI [9]: > 100 µM | TGI [56]: > 100 µM | TGI [10]: > 100 µM | TGI [11]: > 100 µM | TGI [57]: > 100 µM | TGI [58]: > 100 µM | TGI [59]: > 100 µM | TGI [13]: > 100 µM | TGI [14]: > 100 µM | TGI [15]: > 100 µM | TGI [16]: > 100 µM | TGI [18]: > 100 µM | TGI [19]: > 100 µM | TGI [20]: > 100 µM | TGI [21]: > 100 µM | TGI [22]: > 100 µM | TGI [23]: > 100 µM | TGI [24]: > 100 µM | TGI [26]: > 100 µM | TGI [27]: > 100 µM | TGI [28]: > 100 µM | TGI [29]: > 100 µM | TGI [30]: > 100 µM | TGI [31]: > 100 µM | TGI [32]: > 100 µM | TGI [33]: > 100 µM | TGI [34]: > 100 µM | TGI [35]: > 100 µM | TGI [36]: > 100 µM | TGI [37]: > 100 µM | TGI [38]: > 100 µM | TGI [40]: > 100 µM | TGI [41]: > 100 µM | TGI [42]: > 100 µM | TGI [43]: > 100 µM | TGI [45]: > 100 µM | TGI [46]: > 100 µM | TGI [48]: > 100 µM | TGI [49]: > 100 µM | TGI [50]: > 100 µM | TGI [51]: > 100 µM | TGI [52]: > 100 µM | TGI [53]: > 100 µM | TGI [54]: > 100 µM
